The source of these data is publication PMC10708954, “Exploring the Effect of Compound Glycyrrhizin and Silybinin on the Metabolism of Pexidartinib in Rats Based on CYP3A4 and CYP2C9” (Advances in Pharmacological and Pharmaceutical Sciences, 2023).

The structures appear in SMILES notation. Where two headings read alike, the source gives them in different places.

One may read the Cmax as the peak of the concentration-time curve. For orientation: Tmax means the time at which the peak concentration occurs. The half-life is how long it takes for the measured level to halve.

For one series, the system named is CYP2C9. As to the kind of experiment: Western blot of CYP2C9 protein expression in rat liver. How it is done: (§1) The rats in all five groups were gavaged once a day for fourteen consecutive days. Groups E and G were gavaged with 150 mg/kg aqueous solution of silybinin (containing 21 mg/kg silybinin), groups F and H were gavaged with 13.5 mg/kg aqueous solution of compound glycyrrhizin (containing 4.5 mg/kg glycyrrhizin), and from the 15-days onwards, groups G and H were given 40 mg/kg of PXD per day for a total of 7-days, and equal amounts of saline were given to groups E and F. Group D was gavaged with equal amounts of saline until the end of the experiment. After gavage for 21 days, rats in each group were anesthetized with 10% urethane, and their fresh livers were snap-frozen in liquid nitrogen and stored at −80°C for subsequent experiments.
(§2) Fresh livers were removed at −80°C and weighed portions were homogenized in ep tubes with lysis buffer containing 0.1% PMSF. We prepared 12% SDS-PAGE routine gel, then each group took the corresponding protein samples and prestained Marker samples, 80 V constant voltage for 90 min, the voltage was adjusted to 120 V, and electrophoresis was continued for 30 min. […] Imaging was performed using Imgage-ProPlus 6.0 software and quantitative analysis was performed using Image J software.
Background: In western blotting, separated proteins are transferred to a membrane and probed.

A short description of series [1]: Pharmacokinetics of PXD in rat plasma (HPLC-UV) after 14 days pretreatment with saline, silybinin or CG. It is filed as in vivo, rats. The settings on record: for Cmax / Tmax / half-life / CL/F / Vd/F: rat, plasma, rats, n = 6, mean ± SD; for CL/F: read-out: CLz/F (converted); for Vd/F: read-out: Vz/F. How it is done: Group B was gavaged with silybinin aqueous solution 150 mg/kg (containing silybinin 21 mg/kg), group C was gavaged with compound glycyrrhizin aqueous solution 13.5 mg/kg (containing glycyrrhizin 4.5 mg/kg), and in contrast, group A was gavaged with an equal amount of saline. After 14-days of administration, three groups were given 40 mg/kg PXD. 0.5 mL of blood was taken from the caudal vein at 0.25, 0.50, 1.00, 2.00, 3.00, 4.00, 6.00, 8.00, 12.00, 24.00, and 48.00 h after being gavaged and added to EP tubes containing heparin, followed by centrifugation at 3500 rpm for 15 min, and finally the supernatant was stored at −20°C and stored for measurement.
The apparatus used in the chromatographic analysis of this work was an 1100 series high-performance liquid chromatography (product of Agilent, USA), which mainly included a vacuum degasser, a four-component infusion pump, an automatic sampler, a column temperature box, and a DAD detector. The fundamental steps were as follows. First of all, the chromatographic separation was carried out on a Venusil C18 column (4.6 mm × 250 mm, 5 μm). Subsequently, the analytes were thoroughly separated under the mobile phase water, acetonitrile, and 0.2% TFA (37 : 43 : 20).
After preparatory 2 ml EP tubes, 300 μL of plasma samples and 15 μL of 10 ng/ml of alpelisib working solution were pipetted separately, followed by 300 μL of 10% sodium carbonate solution, mixed well, and then 1.0 ml of ethyl acetate was included to sediment the proteins. The mixture was vortexed for 2.0 min and subsequently centrifuged at 3500 rpm for 20 min at 4°C. At last, 900 μL of the upper organic phase was transferred to a fresh EP tube, blown dry with an air stream at 50°C, and then redissolved with 100 μL of mobile phase, and 20 μL was sampled for the assay.
In the current study, the drug concentration of PXD in rat plasma was plotted versus the time curve as well as all the bar graphs using GraphPad Prism 8.0 software. Then, DAS (Drug And Statistics) 2.0 software (Shanghai University of Traditional Chinese Medicine, China) was employed to get the main pharmacokinetic parameters of the analytes in nonatrial mode. Then, a one-way analysis of variance (ANOVA) was performed using SPSS (statistical product and service solutions) 25.0 software, while finally, an independent samples t-test was applied to the comparison of major pharmacokinetic parameters between the two groups, where Tmax was tested using rank sum test. Statistical significance was indicated by P < 0.05.

The subject of a further series is CYP3A4. As to the kind of experiment: Western blot of CYP3A4 protein expression in rat liver. How it is done:
as §1, §2

[2] abbreviates: group B (silybinin pretreatment) compared to group A, P < 0.01.
The mark [3] stands for this setting: group B (silybinin pretreatment) compared to group A, P < 0.05.
Setting [4] is: group C (CG pretreatment) compared to group A, P < 0.05.
[5] abbreviates: po, 40 mg/kg, Group A (control: saline 14 days, then single oral 40 mg/kg PXD).
Setting [6] is: po, 40 mg/kg, Group B (silybinin aqueous solution 150 mg/kg, containing silybinin 21 mg/kg, 14 days, then single oral 40 mg/kg PXD).
Setting [7] is: Group C (compound glycyrrhizin aqueous solution 13.5 mg/kg, containing glycyrrhizin 4.5 mg/kg, 14 days, then single oral 40 mg/kg PXD).

Consider `FC(F)(F)c1ccc(CNc2ccc(Cc3c[nH]c4ncc(Cl)cc34)cn2)cn1` [PXD, Pexidartinib], for which the “effect of PXD on the protein expression of CYP2C9” value in the series on CYP2C9 (rat, in vivo, 40 mg/kg) is given as “inducing effect”. Also, in series [1] (setting [2]), the “decrease of Vz/F” value came out at 31.78%, the “increase of AUC0⟶t” value was 28.97% and the “increase of AUC0⟶∞” value is reported as 26.74%. In series [1] (setting [3]), the “decrease of CLz/F” value was determined as 20.69% and the “increase of Cmax” value turned out to be 20.72%. Further, the “increase of Cmax” value in series [1] (group C (CG pretreatment) compared to group A, P < 0.01) is on record as 36.25%. In series [1] (setting [4]), the “increase of AUC0⟶t” value is listed as 20.98% and the “increase of AUC0⟶∞” value is recorded as 21.22%. In series [1] (setting [5]), the Cmax was found to be 10800 ± 1140 ng/mL, the time to peak (Tmax) came out at 4.33 ± 1.37 h, the half-life was 9.83 ± 3.13 h and the CL/F was 4.83 mL/min/kg. Also, the Vd/F in series [1] (setting [5]) worked out at 4.09 ± 1.16 L/kg. In addition, in series [1] (setting [6]), the Cmax was 13000 ± 1160 ng/mL, the Tmax stood at 4.17 ± 0.98 h, the half-life was 8.49 ± 3.3 h and the CL/F was 3.83 mL/min/kg. In addition, the Vd/F in series [1] (setting [6]) came to 2.79 ± 1.03 L/kg. Moreover, in series [1] (setting [7]), the Cmax was 14700 ± 2390 ng/mL, the Tmax was found to be 4.1 ± 1.1 h, the half-life was 5.23 ± 1.13 h and the CL/F was 4.17 mL/min/kg. In addition, the Vd/F in series [1] (setting [7]) came out at 1.81 ± 0.3 L/kg. For the same compound, the “effect of PXD on the protein expression of CYP3A4” value in the series on CYP3A4 (40 mg/kg PXD per day for 7 days after silybinin or CG) was “inducing effect”.
Consider `COc1cc(C2Oc3cc([C@H]4Oc5cc(O)cc(O)c5C(=O)[C@@H]4O)ccc3OC2CO)ccc1O` (stereo partly drawn) [silybinin, Silybinin], for which the “protein expression level of CYP2C9” value with CYP2C9 (rat liver, gavage 21 days, compared with the control group, P < 0.05 and P < 0.01) is given as “decreased”. Moreover, in the series on CYP3A4 (gavage 21 days, compared with the control group, P < 0.05 and P < 0.01), the “protein expression level of CYP3A4” value is given as “decreased”.
